Measured values reported in ChEMBL document CHEMBL4680170, “Anticancer activity of 4'-phenyl-2,2':6',2″-terpyridines - behind the metal complexation” (Eur J Med Chem, 2020).
Active and inactive are the calls of the source. The rule behind the calls is not given here.

How the values were obtained:
[1] = system: HCT-116; assay: Antiproliferative activity against human HCT 116 cells assessed as reduction in cell viability measured after 72 hrs by MTS assay; assay type: functional, cell-based; conditions: HCT-116, 72 h
[2] = system: MCF7; assay: Antiproliferative activity against human MCF-7 cells assessed as reduction in cell viability at 0.1 uM measured after 72 hrs in presence of FeSO4 by MTS assay; assay type: functional, cell-based
[3] = system: MCF7; assay: Induction of apoptosis in human MCF-7 cells assessed as proportion of necrotic cells at 1 uM incubated for 48 hrs by Annexin V Muse cell analyzer based flow cytometry (reference value: 0.45%); assay type: functional
[4] = system: Calf thymus DNA; assay: Binding affinity to calf thymus DNA assessed as DNA intercalation by measuring bathochromic shift incubated for 1.5 hrs by spectrophotometric analysis; assay type: tissue-based; conditions: Bos taurus
[5] = system: MCF7; assay: Induction of apoptosis in human MCF-7 cells assessed as proportion of necrotic cells at 2.5 uM incubated for 48 hrs by Annexin V Muse cell analyzer based flow cytometry (reference value: 0.45%); assay type: functional
[6] = system: MCF7; assay: Antiproliferative activity against human MCF-7 cells assessed as reduction in cell viability at 0.1 uM measured after 72 hrs in presence of CuSO4 by MTS assay; assay type: functional, cell-based
[7] = system: MCF7; assay: Induction of apoptosis in human MCF7 cells assessed as early apoptotic cells by measuring chromatin condensation and nuclear fragmentation at 5 uM incubated for 24 hrs by AO/EB staining based fluorescence microscopy; assay type: functional, cell-based
[8] = system: MCF7; assay: Induction of apoptosis in human MCF-7 cells assessed as proportion of late apoptotic cells at 1 uM incubated for 48 hrs by Annexin V Muse cell analyzer based flow cytometry (reference value: 2.3%); assay type: functional
[9] = system: MCF7; assay: Induction of cell cycle arrest in human MCF-7 cells assessed as increase in cell accumulation at G0/G1 phase incubated for 24 hrs by Muse cell analyzer based flow cytometry; assay type: functional; conditions: dose 1-5 µM
[10] = system: MCF7; assay: Induction of apoptosis in human MCF7 cells assessed as p53 activation at 2.5 uM incubated for 24 hrs by immunoblot analysis; assay type: functional, cell-based
[11] = system: MCF7; assay: Antiproliferative activity against human MCF-7 cells assessed as reduction in cell viability measured after 72 hrs by MTS assay; assay type: functional, cell-based; conditions: MCF7, 72 h
[12] = system: Calf thymus DNA; assay: Binding affinity to calf thymus DNA assessed as DNA intercalation by measuring hypochromic shift incubated for 1.5 hrs by spectrophotometric analysis; assay type: tissue-based; conditions: Bos taurus
[13] = system: MCF7; assay: Induction of apoptosis in human MCF-7 cells assessed as proportion of late apoptotic cells at 5 uM incubated for 48 hrs by Annexin V Muse cell analyzer based flow cytometry (reference value: 2.3%); assay type: functional
[14] = system: MCF7; assay: Induction of cell cycle arrest in human MCF-7 cells assessed as accumulation at S phase at 2.5 uM incubated for 24 hrs by Muse cell analyzer based flow cytometry (reference value: 11.1%); assay type: functional
[15] = system: MCF7; assay: Antiproliferative activity against human MCF-7 cells assessed as reduction in cell viability measured after 72 hrs in presence of FeSO4 by MTS assay; assay type: functional, cell-based; conditions: MCF7, 72 h
[16] = system: MCF7; assay: Induction of cell cycle arrest in human MCF-7 cells assessed as accumulation at G0/G1 phase at 2.5 uM incubated for 24 hrs by Muse cell analyzer based flow cytometry (reference value: 47.4%); assay type: functional
[17] = system: MCF7; assay: Induction of cell cycle arrest in human MCF-7 cells assessed as accumulation at S phase at 5 uM incubated for 24 hrs by Muse cell analyzer based flow cytometry (reference value: 11.1%); assay type: functional
[18] = system: MCF7; assay: Induction of cell cycle arrest in human MCF-7 cells assessed as accumulation at G0/G1 phase at 1 uM incubated for 24 hrs by Muse cell analyzer based flow cytometry (reference value: 47.4%); assay type: functional
[19] = system: MCF7; assay: Antiproliferative activity against human MCF-7 cells assessed as reduction in cell viability at 0.1 uM measured after 72 hrs in presence of FeCl3 by MTS assay; assay type: functional, cell-based
[20] = system: MCF7; assay: Induction of apoptosis in human MCF7 cells assessed as decrease in p21 expression at 2.5 uM incubated for 24 hrs by immunoblot analysis; assay type: functional, cell-based
[21] = system: MCF7; assay: Induction of ROS generation in human MCF7 cells at 1 uM measured after 24 hrs by CellRox Green reagent/Hoechst 33342 staining based fluorescence analysis relative to control; assay type: functional
[22] = system: MCF7; assay: Induction of apoptosis in human MCF-7 cells assessed as proportion of viable cells at 5 uM incubated for 48 hrs by Annexin V Muse cell analyzer based flow cytometry (reference value: 94.2%); assay type: functional
[23] = system: MCF7; assay: Antiproliferative activity against human MCF-7 cells assessed as reduction in cell viability measured after 72 hrs in presence of CdSO4 by MTS assay; assay type: functional, cell-based; conditions: MCF7, 72 h
[24] = system: MCF7; assay: Induction of apoptosis in human MCF-7 cells assessed as proportion of viable cells at 1 uM incubated for 48 hrs by Annexin V Muse cell analyzer based flow cytometry (reference value: 94.2%); assay type: functional
[25] = system: MCF7; assay: Induction of cell cycle arrest in human MCF-7 cells assessed as accumulation at G2/M phase at 5 uM incubated for 24 hrs by Muse cell analyzer based flow cytometry (reference value: 36.9%); assay type: functional
[26] = system: MCF7; assay: Induction of apoptosis in human MCF7 cells assessed as late apoptotic cells by measuring condensed and fragmented nuclei formation at 5 uM incubated for 24 hrs by AO/EB staining based fluorescence microscopy; assay type: functional, cell-based
[27] = system: MCF7; assay: Antiproliferative activity against human MCF-7 cells assessed as reduction in cell viability measured after 72 hrs in presence of CuSO4 by MTS assay; assay type: functional, cell-based; conditions: MCF7, 72 h
[28] = system: MCF7; assay: Induction of cell cycle arrest in human MCF-7 cells assessed as accumulation at G2/M phase at 1 uM incubated for 24 hrs by Muse cell analyzer based flow cytometry (reference value: 36.9%); assay type: functional
[29] = system: DNA; assay: Induction of Escherichia coli supercoiled pUC19 plasmid DNA cleavage assessed as open circular form formation at 50 uM incubated for 60 mins by agarose gel electrophoresis analysis; assay type: nucleic-acid assay
[30] = system: MCF7; assay: Antiproliferative activity against human MCF-7 cells assessed as reduction in cell viability at 0.1 uM measured after 72 hrs in presence of CdSO4 by MTS assay; assay type: functional, cell-based
[31] = system: MCF7; assay: Induction of apoptosis in human MCF-7 cells assessed as proportion of early apoptotic cells at 1 uM incubated for 48 hrs by Annexin V Muse cell analyzer based flow cytometry (reference value: 3.05%); assay type: functional
[32] = system: MCF7; assay: Antiproliferative activity against human MCF-7 cells assessed as reduction in cell viability at 0.1 uM measured after 72 hrs in presence of ZnCl2 by MTS assay; assay type: functional, cell-based
[33] = system: MCF7; assay: Induction of cell cycle arrest in human MCF-7 cells assessed as accumulation at S phase at 1 uM incubated for 24 hrs by Muse cell analyzer based flow cytometry (reference value: 11.1%); assay type: functional
[34] = system: MCF7; assay: Induction of apoptosis in human MCF-7 cells incubated for 48 hrs by Annexin V Muse cell analyzer based flow cytometry; assay type: functional; conditions: dose 1-5 µM
[35] = system: MCF7; assay: Induction of apoptosis in human MCF-7 cells assessed as proportion of late apoptotic cells at 2.5 uM incubated for 48 hrs by Annexin V Muse cell analyzer based flow cytometry (reference value: 2.3%); assay type: functional
[36] = system: MCF7; assay: Induction of cell cycle arrest in human MCF-7 cells assessed as accumulation at G2/M phase at 2.5 uM incubated for 24 hrs by Muse cell analyzer based flow cytometry (reference value: 36.9%); assay type: functional
[37] = system: MCF7; assay: Antiproliferative activity against human MCF-7 cells assessed as reduction in cell viability measured after 72 hrs in presence of ZnCl2 by MTS assay; assay type: functional, cell-based; conditions: MCF7, 72 h
[38] = system: MCF7; assay: Potency index, ratio of oxaliplatin IC50 to test compound IC50 for anticancer activity against human MCF7 cells measured after 72 hrs by MTS assay; assay type: functional
[39] = system: MCF7; assay: Induction of apoptosis in human MCF7 cells assessed as increase in AIP protein expression at 2.5 uM incubated for 24 hrs by immunoblot analysis; assay type: functional, cell-based
[40] = system: U-251; assay: Antiproliferative activity against human U251 cells assessed as reduction in cell viability measured after 72 hrs by MTS assay; assay type: functional, cell-based; conditions: U-251, 72 h
[41] = system: DNA; assay: Induction of Escherichia coli supercoiled pUC19 plasmid DNA cleavage assessed as linear form formation at 50 uM incubated for 60 mins by agarose gel electrophoresis analysis; assay type: nucleic-acid assay
[42] = system: A549; assay: Antiproliferative activity against human A549 cells assessed as reduction in cell viability measured after 72 hrs by MTS assay; assay type: functional, cell-based; conditions: A549, 72 h
[43] = system: MCF7; assay: Induction of ROS generation in human MCF7 cells at 1 uM measured after 1 hr by CellRox Green reagent/Hoechst 33342 staining based fluorescence analysis; assay type: functional, cell-based
[44] = system: MCF7; assay: Induction of apoptosis in human MCF-7 cells assessed as proportion of necrotic cells at 5 uM incubated for 48 hrs by Annexin V Muse cell analyzer based flow cytometry (reference value: 0.45%); assay type: functional
[45] = system: NHDF; assay: Cytotoxicity against human NHDF cells assessed as reduction in cell viability measured after 72 hrs by MTS assay; assay type: cell-based
[46] = system: MCF7; assay: Induction of apoptosis in human MCF-7 cells assessed as proportion of early apoptotic cells at 5 uM incubated for 48 hrs by Annexin V Muse cell analyzer based flow cytometry (reference value: 3.05%); assay type: functional
[47] = system: MCF7; assay: Potency index, ratio of doxorubicin IC50 to test compound IC50 for anticancer activity against human MCF7 cells measured after 72 hrs by MTS assay; assay type: functional
[48] = system: MCF7; assay: Induction of apoptosis in human MCF-7 cells assessed as proportion of viable cells at 2.5 uM incubated for 48 hrs by Annexin V Muse cell analyzer based flow cytometry (reference value: 94.2%); assay type: functional
[49] = Drug uptake in human MCF7 cells mitochondria at 25 uM incubated for 2 hrs by MitoTracker Orange/LysoTracker staining based fluorescence microscopy; assay type: ADME; conditions: mcf7, 2 h
[50] = system: MCF7; assay: Induction of apoptosis in human MCF-7 cells assessed as proportion of early apoptotic cells at 2.5 uM incubated for 48 hrs by Annexin V Muse cell analyzer based flow cytometry (reference value: 3.05%); assay type: functional
[51] = system: MCF7; assay: Induction of apoptosis in human MCF7 cells assessed as cytochrome c release into cytosol at 2.5 uM incubated for 24 hrs by immunoblot analysis; assay type: functional, cell-based
[52] = system: MCF7; assay: Antiproliferative activity against human MCF-7 cells assessed as reduction in cell viability measured after 72 hrs in presence of FeCl3 by MTS assay; assay type: functional, cell-based; conditions: MCF7, 72 h
[53] = system: MCF7; assay: Induction of cell cycle arrest in human MCF-7 cells assessed as accumulation at G0/G1 phase at 5 uM incubated for 24 hrs by Muse cell analyzer based flow cytometry (reference value: 47.4%); assay type: functional
[54] = system: PANC-1; assay: Antiproliferative activity against human PANC-1 cells assessed as reduction in cell viability measured after 72 hrs by MTS assay; assay type: functional, cell-based; conditions: PANC-1, 72 h

With `CCCCCCCCCCn1cc(-c2ccc(-c3cc(-c4ccccn4)nc(-c4ccccn4)c3)cc2)nn1` the IC50 [1] was 270 nM, the Activity [2] was “Active” and the Activity [3] was 8.9%. For the same molecule, the Activity [4] was “Active”, the Activity [5] was 4.9% and the Activity [6] was “Active”. The Activity [7] was “Active”, the Activity [8] was 8.55% and the Activity [9] was “Dose-dependent effect”. For the same molecule, the Activity [10] was “inactive”, the IC50 [11] was 40 nM and the Activity [12] was 18.2%. It also gave an Activity [13] of 15.3%, an Activity [14] of 13.7% and an IC50 [15] of 1000 nM. It also gave an Activity [16] of 57.4%, an Activity [17] of 14.3% and an Activity [18] of 45.5%. For the same molecule, the Activity [19] was “Active”, the Activity [20] was “Active” and the Activity [21] was 140%. It also gave an Activity [22] of 47.6%, an IC50 [23] of 1000 nM and an Activity [24] of 79.1%. The Activity [25] was 24%, the Activity [26] was “Active” and the IC50 [27] was 39 nM. For the same molecule, the Activity [28] was 34.3%, the Activity [29] was “Active” and the Activity [30] was “Active”. For the same molecule, the Activity [31] was 3.45%, the Activity [32] was “Active” and the Activity [33] was 16.3%. For the same molecule, the Activity [34] was “Dose-dependent effect”, the Activity [35] was 16.25% and the Activity [36] was 25.2%. For the same molecule, the IC50 [37] was 1000 nM, the “Ratio IC50” value [38] was 26 and the Activity [39] was “Active”. For the same molecule, the IC50 [40] was 140 nM, the Activity [41] was “Active” and the IC50 [42] was 750 nM. For the same molecule, the Activity [43] was “Active”, the Activity [44] was 6.9% and the IC50 [45] was 20800 nM. The Activity [46] was 30.2%, the “Ratio IC50” value [47] was 10 and the Activity [48] was 69.9%. For the same molecule, the Drug uptake [49] was “Active”, the Activity [50] was 8.95% and the Activity [51] was “Active”. For the same molecule, the IC50 [52] was 1000 nM, the Activity [53] was 66.2% and the IC50 ([54]; read-out: IC50) was 440 nM.

`COc1cccc2c1C(=O)c1c(O)c3c(c(O)c1C2=O)C[C@@](O)(C(=O)CO)C[C@@H]3O[C@H]1C[C@H](N)[C@H](O)[C@H](C)O1` [DOXORUBICIN] gave an IC50 [11] of 410 nM, an Activity [12] of 34.2% and an IC50 [40] of 50 nM. The IC50 [42] was 1060 nM and the IC50 [54] was 730 nM.
